The text below walks through data of patent US20220153732A1, “PROTEIN SECRETION INHIBITORS” (KEZAR LIFE SCIENCES, priority 2019, published 2022).

pEC50, pIC50: −log10 of the molar value. Like-named read-outs stand apart in the source and are kept apart here. A value given as a limit tells only on which side of the number the result lay.

Holding throughout (assay type): cell-based
Assay [1] deals with PD1-ss+10aa/Gaussia Luciferase. Briefly: Dox-Induced PD1-ss-Gluc Assay. To be noted: 293FRT/TO cells, read-out: 24 hr Dox Inducible PD1ssGluc 293FRT/TO: Mean IC50. In a few lines: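 Stable cell line carrying PD1-ss+10aa/Gaussia luciferase cDNA under T-REx (doxycycline-inducible) control, plated the day before assay. Compound dilutions in DMSO/media containing doxycycline added and incubated at 37° C, 5% CO2. Undefined stereocentres: data refer to stereoisomer mixtures.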

Assay [2] deals with TNFα-FL/Gaussia Luciferase. As to the kind of experiment: Dox Induced TNFα-FL-Gluc Assay. Conditions: 293FRT/TO cells, read-out: 24 hr Dox Inducible TNFaFLGluc 293FRT/TO: Mean IC50. In a few lines:
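A stable T-REx cell line carrying doxycycline-inducible TNFα-FL/Gaussia luciferase was plated the day before assay. Compound dilutions in DMSO/media containing doxycycline were then added and incubated at 37° C, 5% CO2.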

The test system of assay [3] is HER3-ss+4aa/Gaussia Luciferase. As to the kind of experiment: Dox-Induced Her3-ss-Gluc Assay. Conditions: 293FRT/TO cells, read-out: 24 hr Dox Inducible Her3(ss + 4)Gluc 293FRT/TO: Mean IC50. The method in brief:
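Stable T-REx cell line carrying a doxycycline-regulated HER3-ss+4aa/Gaussia luciferase insert, plated the day before assay. Compound dilutions in DMSO/media with doxycycline added, then incubated at 37° C., 5% CO2. Stereoisomer mixtures tested where stereochemistry is not drawn.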

For assay [4], the system named is IL-2-FL/Gaussia Luciferase. Briefly: Dox Induced IL2-FL-Gluc Assay. Conditions: 293FRT/TO cells, read-out: 24 hr Dox Inducible IL2FLGIuc 293FRT/TO: Mean IC50. In a few lines:
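Stable T-REx cell line expressing doxycycline-inducible IL-2-FL/Gaussia luciferase cDNA, plated the day before assay. Compound dilutions in DMSO/media containing doxycycline added and incubated at 37° C., 5% CO2. Unspecified stereochemistry means data refer to a stereoisomer mixture.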

Assay [5] relates to human multiple myeloma cell line NCI-H929. As to the kind of experiment: H929 Cell Viability Assay. To be noted: 48 hr, NCI-H929 cells, Celltiter-Glo, read-out: 48 hr H929 Viability Celltiter-Glo: Mean EC50. The method, then: Plates were incubated at 37° C., 5% CO2 for 48 hours. After 48 hours, Celltiter-Glo® (Promega) was added to each well and luciferase signal was quantified using Tecan Infinite M1000 Pro for cell viability determination.
For chemical structures that include one or more stereoisomers, but are illustrated without indicating stereochemistry, the assay data refers to a mixture of stereoisomers.
On the technique in general: Cellular ATP, detected with luciferase, serves as a proxy for viable cell number.

The subject of assay [6] is human multiple myeloma cell line U266B1. As to the kind of experiment: U266 Cell Viability Assay. Conditions: U-266, 48 hr, U266B1 cells, Celltiter-Glo, read-out: 48 hr U266 Viability Celltiter-Glo: Mean EC50. The method in brief:
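U266B1 myeloma cells treated with compound dilutions in DMSO/media for 48 h at 37 °C, 5% CO2. Viability read by CellTiter-Glo luminescence. Stereochemically undefined structures were tested as stereoisomer mixtures.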

Setting [7] is: 24 hr doxycycline induction, Gaussia luciferase signal.

Usually pEC50 stands for the negative decadic logarithm of the EC50, by convention in mol/L. On to `Cc1sc(NC(=O)c2cccn2Cc2ccncc2)nc1C(C)OC(C)C` (stereo not drawn) [Compound A20, N-(4-(1-isopropoxyethyl)-5-methylthiazol-2-yl)-1-(pyridin-4-ylmethyl)-1H-pyrrole-2-carboxamide], for which the pIC50 is 6.61 in assay [1] (setting [7]), 5.14 in assay [2] (setting [7]), 6.29 in assay [3] (setting [7]) and 6.45 in assay [4] (setting [7]). Besides, the pEC50 in assay [5] and in assay [6] was under 4.60 throughout.
For `NC(=O)Cc1csc(NC(=O)c2cccn2Cc2ccncc2)n1` [Compound B18], the pIC50 is under 4.60 in assay [1] (24 hr, doxycycline-induced); under 4.60 in assay [2] (24 hr, doxycycline-induced); under 4.60 in assay [3] (24 hr, doxycycline-induced); under 4.60 in assay [4] (24 hr, doxycycline-induced). Further, the pEC50 in assay [5] and in assay [6] was under 4.60 each time.
For the compound `C/C(=C\c1ccccc1)c1csc(NC(=O)c2cccn2Cc2ccncc2)n1` [Compound A247, N-(4-(1-phenylprop-1-en-2-yl)thiazol-2-yl)-1-(pyridin-4-ylmethyl)-1H-pyrrole-2-carboxamide], the pIC50 is 6.84 in assay [1] (setting [7]), 5.63 in assay [2] (setting [7]), 6.42 in assay [3] (setting [7]) and 6.10 in assay [4] (setting [7]). Further, the pEC50 in assay [5] and in assay [6] was under 4.60 throughout.
With `O=C(Nc1nc2ccsc2s1)c1cccn1Cc1ccncc1` [Compound A60], the pIC50 in assay [1] (setting [7]) is 5.81; in assay [2] (setting [7]) it was under 4.60; in assay [3] (setting [7]) it was 5.43; in assay [4] (setting [7]) it was 5.57. The pEC50 in assay [5] and in assay [6] was under 4.60 throughout.
`O=C(Nc1nc(/C=C/c2ccccc2Cl)cs1)c1cccn1Cc1ccncc1` [Compound A161, N-(4-(2-chlorostyryl)thiazol-2-yl)-1-(pyridin-4-ylmethyl)-1H-pyrrole-2-carboxamide]: the pIC50 in assay [1] (setting [7]) is 6.87; in assay [2] (setting [7]), 5.54; in assay [3] (setting [7]), 6.28; in assay [4] (setting [7]), 5.97. Further, the pEC50 in assay [5] is 5.28; in assay [6], 4.96.
Regarding `CCc1cnc(NC(=O)c2cccn2Cc2ccncc2)s1` [Compound A65], the pIC50 in assay [1] (setting [7]) was 5.75; in assay [2] (setting [7]), under 4.60; in assay [3] (setting [7]), 5.38; in assay [4] (setting [7]), 4.95. Also, the pEC50 in assay [5] and in assay [6] was under 4.60 each time.
As for `O=C(Nc1nc([C@@H]2CC[C@@H](c3ccccc3)C2)cs1)c1cccn1Cc1ccncc1` (stereo in doubt) [Compound A292, N-(4-((1R,3R)-3-phenylcyclopentyl)thiazol-2-yl)-1-(pyridin-4-ylmethyl)-1H-pyrrole-2-carboxamide], the pIC50 was 6.68 in assay [1] (setting [7]), 5.60 in assay [2] (setting [7]), 6.33 in assay [3] (setting [7]) and 6.08 in assay [4] (setting [7]). Moreover, the pEC50 in assay [5] is 4.72; in assay [6], under 4.60.
As for `Cc1ccc(S(=O)(=O)CCOC(C)(C)c2csc(NC(=O)c3cccn3Cc3ccncc3)n2)cc1` [Compound B3, 1-(pyridin-4-ylmethyl)-N-(4-(2-(2-tosylethoxy)propan-2-yl)thiazol-2-yl)-1H-pyrrole-2-carboxamide], the pIC50 in assay [1] (24 hr, doxycycline-induced) was 5.55; in assay [2] (24 hr, doxycycline-induced), under 4.60; in assay [3] (24 hr, doxycycline-induced), 5.37; in assay [4] (24 hr, doxycycline-induced), 5.53. For the same compound, the pEC50 in assay [5] and in assay [6] was under 4.60 each time.
For `CC(C)OC(C)(C)c1csc(NC(=O)c2ccc(C(N)=O)n2Cc2ccncc2)n1` [Compound A105, N-(4-(2-isopropoxypropan-2-yl)thiazol-2-yl)-1-(pyridin-4-ylmethyl)-1H-pyrrole-2,5-dicarboxamide], the pIC50 in assay [1] (setting [7]), in assay [2] (setting [7]), in assay [3] (setting [7]) and in assay [4] (setting [7]) was under 4.60 in each case. The pEC50 in assay [5] and in assay [6] was under 4.60 in each case.
In the case of `CC(C)OC(C)(C)c1nc(NC(=O)c2cccn2Cc2ccncc2)sc1Br` [Compound A30], the pIC50 in assay [1] (setting [7]) is 6.26; in assay [2] (setting [7]), 4.93; in assay [3] (setting [7]), 6.09; in assay [4] (setting [7]), 6.03. For the same compound, the pEC50 is 4.64 in assay [5] and under 4.60 in assay [6].
As to `C[C@]1(c2csc(NC(=O)c3cccn3Cc3ccncc3)n2)CCCN1c1ccccc1` [Compound A338], the pIC50 in assay [1] (24 hr, doxycycline-induced) is 6.69; in assay [2] (24 hr, doxycycline-induced), 5.73; in assay [3] (24 hr, doxycycline-induced), 6.58; in assay [4] (24 hr, doxycycline-induced) it was 6.46. Further, the pEC50 in assay [5] is 4.83; in assay [6] it was under 4.60.
Take `CC(C)OC(C)(C)c1csc(NC(=O)c2ccccc2N2CCOCC2)n1` [Compound A340]: the pIC50 in assay [1] (24 hr, doxycycline-induced) is under 4.60; in assay [2] (24 hr, doxycycline-induced), under 4.60; in assay [3] (24 hr, doxycycline-induced), under 4.60; in assay [4] (24 hr, doxycycline-induced), under 4.60. The pEC50 in assay [5] and in assay [6] was under 4.60 each time.
With `O=C(Nc1nc([C@H]2CCC[C@@H]2c2ccccc2)cs1)c1cccn1Cc1ccncc1` [Compound A300, N-(4-((1S,2S)-2-phenylcyclopentyl)thiazol-2-yl)-1-(pyridin-4-ylmethyl)-1H-pyrrole-2-carboxamide], the pIC50 in assay [1] (24 hr, doxycycline-induced) was 6.48; in assay [2] (24 hr, doxycycline-induced), 5.62; in assay [3] (24 hr, doxycycline-induced), 6.23; in assay [4] (24 hr, doxycycline-induced), 6.35. Besides, the pEC50 in assay [5] was 4.98; in assay [6], under 4.60.
With `CC(C)OC(C)(C)c1csc(NC(=O)c2cccn2CCc2ccncc2)n1` [Compound A91, N-(4-(2-isopropoxypropan-2-yl)thiazol-2-yl)-1-(2-(pyridin-4-yl)ethyl)-1H-pyrrole-2-carboxamide], the pIC50 in assay [1] (setting [7]) was 4.92; in assay [2] (setting [7]), under 4.60; in assay [3] (setting [7]), under 4.60; in assay [4] (setting [7]), under 4.67. Also, the pEC50 in assay [5] and in assay [6] was under 4.60 in each case.
As to `O=C(Nc1nc2nccnc2s1)c1cccn1Cc1ccncc1` [Compound A115], the pIC50 in assay [1] (setting [7]), in assay [2] (setting [7]), in assay [3] (setting [7]) and in assay [4] (setting [7]) was under 4.60 throughout. Also, the pEC50 in assay [5] and in assay [6] was under 4.60 in each case.
On to `O=C(Nc1nc(N2CCN(c3ccccc3)CC2)cs1)c1cccn1Cc1ccncc1` [Compound A266], for which the pIC50 in assay [1] (setting [7]) is 5.20; in assay [2] (setting [7]), under 4.60; in assay [3] (setting [7]), 5.05; in assay [4] (setting [7]) it was under 4.60. Besides, the pEC50 in assay [5] and in assay [6] was under 4.60 in each case.
In the case of `CC(C)OC1(c2csc(NC(=O)c3cccn3Cc3ccncc3)n2)CC1` [Compound A123], the pIC50 in assay [1] (setting [7]), in assay [2] (setting [7]), in assay [3] (setting [7]) and in assay [4] (setting [7]) was under 4.60 throughout. The pEC50 in assay [5] and in assay [6] was under 4.60 each time.
`CC(C)OC(C)(C)c1csc(NC(=O)Cc2ccc(Cc3ccncc3)[nH]2)n1` [Compound B12, N-(4-(2-isopropoxypropan-2-yl)thiazol-2-yl)-2-(5-(pyridin-4-ylmethyl)-1H-pyrrol-2-yl)acetamide]: the pIC50 was under 4.60 in assay [1] (24 hr, doxycycline-induced); under 4.60 in assay [2] (24 hr, doxycycline-induced); under 4.60 in assay [3] (24 hr, doxycycline-induced); under 4.60 in assay [4] (24 hr, doxycycline-induced). Besides, the pEC50 in assay [5] and in assay [6] was under 4.60 in each case.
In the case of `CC(C)O[C@@H]1CC(c2csc(NC(=O)c3cccn3Cc3ccncc3)n2)N(c2ccccc2)C1` (stereo partly drawn) [Compound A346], the pIC50 was 7.77 in assay [1] (24 hr, doxycycline-induced); 7.04 in assay [2] (24 hr, doxycycline-induced); 7.66 in assay [3] (24 hr, doxycycline-induced); 7.70 in assay [4] (24 hr, doxycycline-induced). In addition, the pEC50 is 6.01 in assay [5] and under 4.60 in assay [6].
For the compound `COc1ccc(N2CC(c3csc(NC(=O)c4cccn4Cc4ccncc4)n3)C2)nc1` [Compound A315], the pIC50 was 6.60 in assay [1] (24 hr, doxycycline-induced); 5.10 in assay [2] (24 hr, doxycycline-induced); 6.08 in assay [3] (24 hr, doxycycline-induced); 5.85 in assay [4] (24 hr, doxycycline-induced). In addition, the pEC50 in assay [5] and in assay [6] was under 4.60 each time.
